Values joined by “and” are separate entries in the source; they are usually repeats but may differ in a detail not shown here. Equal entries are not always repeated.
Columns and labels:
Experiment in all cases: radiometric filter-binding kinase assay, Kinase HotSpot
Details in all cases: compound 0.5 µM; ATP 10 µM
STK11 (human) = STK11 (human) (UniProt Q15831)
AKT3 (human) = AKT3 (human) (UniProt Q9Y243)
NEK7 (human) = NEK7 (human) (UniProt Q8TDX7)
CSK (human) = CSK (human) (UniProt P41240)
PRKD3 (human) = PRKD3 (human) (UniProt O94806)
ITK (human) = ITK (human) (UniProt Q08881)
CDK3 CCNE1 (human) = CDK3 CCNE1 (human) (UniProt Q00526+P24864)
TTK (human) = TTK (human) (UniProt P33981)
FES (human) = FES (human) (UniProt P07332)
PASK (human) = PASK (human) (UniProt Q96RG2)
EPHB1 (human) = EPHB1 (human) (UniProt P54762)
CAMK1G (human) = CAMK1G (human) (UniProt Q96NX5)
TXK (human) = TXK (human) (UniProt P42681)
FGFR4 (human) = FGFR4 (human) (UniProt P22455)
MKNK2 (human) = MKNK2 (human) (UniProt Q9HBH9)
ALK (human) = ALK (human) (UniProt Q9UM73)
MARK2 (human) = MARK2 (human) (UniProt Q7KZI7)
ADRBK2 (human) = ADRBK2 (human) (UniProt P35626)
FYN (human) = FYN (human) (UniProt P06241)
RPS6KA6 KD1 KD2 (human) = RPS6KA6 KD1 KD2 (human) (UniProt Q9UK32)
BRSK2 (human) = BRSK2 (human) (UniProt Q8IWQ3)
MAPK9 (human) = MAPK9 (human) (UniProt P45984)
NEK1 (human) = NEK1 (human) (UniProt Q96PY6)
SGK3 (human) = SGK3 (human) (UniProt Q96BR1)
CDK5 CDK5R1 p25 (human) = CDK5 CDK5R1 p25 (human) (UniProt Q00535+Q15078)
SRC (human) = SRC (human) (UniProt P12931)
EPHA7 (human) = EPHA7 (human) (UniProt Q15375)
JAK2 JH1 JH2 (human) = JAK2 JH1 JH2 (human) (UniProt O60674)
PLK3 (human) = PLK3 (human) (UniProt Q9H4B4)
CDC42BPA (human) = CDC42BPA (human) (UniProt Q5VT25)
DDR2 (human) = DDR2 (human) (UniProt Q16832)
FGFR1 (human) = FGFR1 (human) (UniProt P11362)
GRK7 (human) = GRK7 (human) (UniProt Q8WTQ7)
TEC (human) = TEC (human) (UniProt P42680)
MAPK1 (human) = MAPK1 (human) (UniProt P28482)
CAMKK2 (human) = CAMKK2 (human) (UniProt Q96RR4)
DSTYK (human) = DSTYK (human) (UniProt Q6XUX3)
PRKCG (human) = PRKCG (human) (UniProt P05129)
INSRR (human) = INSRR (human) (UniProt P14616)
RPS6KA3 KD1 KD2 (human) = RPS6KA3 KD1 KD2 (human) (UniProt P51812)
PAK1 (human) = PAK1 (human) (UniProt Q13153)
LYN (human) = LYN (human) (UniProt P07948)

Chain of AKT3 (human) (Q9Y243 whole entry, looked up): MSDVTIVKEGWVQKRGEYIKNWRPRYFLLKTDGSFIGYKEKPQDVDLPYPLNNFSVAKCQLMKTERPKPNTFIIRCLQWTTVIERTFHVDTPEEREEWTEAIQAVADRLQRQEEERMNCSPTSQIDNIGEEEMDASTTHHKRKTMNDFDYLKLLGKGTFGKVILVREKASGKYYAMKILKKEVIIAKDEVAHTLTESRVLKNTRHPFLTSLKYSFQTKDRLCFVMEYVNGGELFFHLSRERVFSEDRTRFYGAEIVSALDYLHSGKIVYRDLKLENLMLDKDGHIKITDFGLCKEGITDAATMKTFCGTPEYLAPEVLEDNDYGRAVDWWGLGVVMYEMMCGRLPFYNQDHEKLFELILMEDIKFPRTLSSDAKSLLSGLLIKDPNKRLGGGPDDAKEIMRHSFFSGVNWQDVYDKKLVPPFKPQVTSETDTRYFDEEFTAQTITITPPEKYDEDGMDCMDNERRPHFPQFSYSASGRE
Chain of PAK1 (human) (Q13153 whole entry, looked up): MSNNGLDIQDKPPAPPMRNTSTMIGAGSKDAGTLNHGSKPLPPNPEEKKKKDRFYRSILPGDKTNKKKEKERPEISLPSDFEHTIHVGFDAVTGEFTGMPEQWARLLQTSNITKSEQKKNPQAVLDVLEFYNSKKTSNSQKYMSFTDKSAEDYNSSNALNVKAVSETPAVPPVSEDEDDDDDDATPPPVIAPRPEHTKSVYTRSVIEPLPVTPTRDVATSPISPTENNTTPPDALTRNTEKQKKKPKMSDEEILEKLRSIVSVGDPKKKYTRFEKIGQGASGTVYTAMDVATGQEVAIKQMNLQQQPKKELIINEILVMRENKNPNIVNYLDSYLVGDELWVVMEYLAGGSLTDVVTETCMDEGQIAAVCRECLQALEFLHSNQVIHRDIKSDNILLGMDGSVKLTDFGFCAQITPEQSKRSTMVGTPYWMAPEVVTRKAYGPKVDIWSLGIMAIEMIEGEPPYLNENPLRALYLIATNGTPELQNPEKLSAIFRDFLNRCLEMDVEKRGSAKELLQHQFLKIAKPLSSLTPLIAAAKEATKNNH
Chain of SRC (human) (P12931 whole entry, looked up): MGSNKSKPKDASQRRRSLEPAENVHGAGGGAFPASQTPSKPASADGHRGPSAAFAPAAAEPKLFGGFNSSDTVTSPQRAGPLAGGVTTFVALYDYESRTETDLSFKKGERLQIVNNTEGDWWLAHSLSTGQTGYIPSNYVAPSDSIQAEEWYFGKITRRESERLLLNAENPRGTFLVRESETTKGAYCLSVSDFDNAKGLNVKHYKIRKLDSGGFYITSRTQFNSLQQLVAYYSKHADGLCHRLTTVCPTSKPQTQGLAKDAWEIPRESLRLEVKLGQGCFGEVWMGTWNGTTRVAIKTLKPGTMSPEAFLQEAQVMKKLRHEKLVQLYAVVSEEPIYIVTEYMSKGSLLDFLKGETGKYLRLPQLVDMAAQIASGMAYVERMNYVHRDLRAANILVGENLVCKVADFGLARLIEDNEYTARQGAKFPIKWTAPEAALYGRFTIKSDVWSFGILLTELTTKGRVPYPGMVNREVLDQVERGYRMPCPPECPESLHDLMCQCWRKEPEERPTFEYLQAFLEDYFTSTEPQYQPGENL
Chain of SGK3 (human) (Q96BR1 whole entry, looked up): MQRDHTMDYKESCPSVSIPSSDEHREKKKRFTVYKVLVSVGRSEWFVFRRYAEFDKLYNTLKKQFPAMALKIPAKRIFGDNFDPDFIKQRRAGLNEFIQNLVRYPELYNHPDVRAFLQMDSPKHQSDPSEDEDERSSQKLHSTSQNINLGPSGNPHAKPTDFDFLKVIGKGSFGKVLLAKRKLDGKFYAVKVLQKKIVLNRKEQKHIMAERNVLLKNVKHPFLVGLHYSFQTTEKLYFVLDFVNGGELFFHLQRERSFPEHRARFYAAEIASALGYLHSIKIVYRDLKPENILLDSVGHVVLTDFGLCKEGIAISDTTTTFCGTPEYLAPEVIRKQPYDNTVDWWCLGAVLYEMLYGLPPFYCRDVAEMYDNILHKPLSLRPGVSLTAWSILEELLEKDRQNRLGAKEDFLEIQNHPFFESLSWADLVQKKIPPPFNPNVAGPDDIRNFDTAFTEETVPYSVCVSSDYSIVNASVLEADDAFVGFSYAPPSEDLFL
Chain of PASK (human) (Q96RG2 whole entry, looked up): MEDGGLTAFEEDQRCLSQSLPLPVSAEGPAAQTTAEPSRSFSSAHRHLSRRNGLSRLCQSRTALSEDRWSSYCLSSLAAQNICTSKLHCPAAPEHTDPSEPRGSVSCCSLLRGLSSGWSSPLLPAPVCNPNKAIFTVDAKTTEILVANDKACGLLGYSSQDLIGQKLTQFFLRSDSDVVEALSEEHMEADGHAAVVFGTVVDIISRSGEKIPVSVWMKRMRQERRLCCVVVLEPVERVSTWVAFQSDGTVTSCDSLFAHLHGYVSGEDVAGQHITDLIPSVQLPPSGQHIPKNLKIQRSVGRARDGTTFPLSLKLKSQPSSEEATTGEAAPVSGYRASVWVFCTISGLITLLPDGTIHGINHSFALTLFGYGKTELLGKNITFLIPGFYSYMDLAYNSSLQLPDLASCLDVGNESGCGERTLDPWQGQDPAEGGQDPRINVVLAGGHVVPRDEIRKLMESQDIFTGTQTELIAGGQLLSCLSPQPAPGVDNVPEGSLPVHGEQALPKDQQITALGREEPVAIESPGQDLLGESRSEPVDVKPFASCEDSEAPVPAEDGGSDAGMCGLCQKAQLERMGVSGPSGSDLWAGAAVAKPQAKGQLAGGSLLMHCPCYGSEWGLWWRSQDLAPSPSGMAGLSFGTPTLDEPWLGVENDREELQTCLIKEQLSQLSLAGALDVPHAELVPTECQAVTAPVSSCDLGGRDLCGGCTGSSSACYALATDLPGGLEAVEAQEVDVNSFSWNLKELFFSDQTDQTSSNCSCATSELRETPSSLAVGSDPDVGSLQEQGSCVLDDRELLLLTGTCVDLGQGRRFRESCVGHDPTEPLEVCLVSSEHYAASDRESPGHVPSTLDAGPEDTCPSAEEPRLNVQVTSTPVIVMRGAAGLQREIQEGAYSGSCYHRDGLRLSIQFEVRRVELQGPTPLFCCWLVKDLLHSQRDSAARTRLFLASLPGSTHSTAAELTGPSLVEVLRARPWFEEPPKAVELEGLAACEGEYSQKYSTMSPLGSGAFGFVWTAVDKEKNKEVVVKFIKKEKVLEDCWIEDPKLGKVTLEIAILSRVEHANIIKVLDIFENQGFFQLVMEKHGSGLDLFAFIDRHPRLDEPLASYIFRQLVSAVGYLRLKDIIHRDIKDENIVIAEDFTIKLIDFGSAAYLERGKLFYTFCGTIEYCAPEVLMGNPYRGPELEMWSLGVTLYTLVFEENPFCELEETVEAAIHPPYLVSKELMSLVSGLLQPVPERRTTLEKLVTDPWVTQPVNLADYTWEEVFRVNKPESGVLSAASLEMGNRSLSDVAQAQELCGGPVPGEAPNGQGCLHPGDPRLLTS
Chain of EPHA7 (human) (Q15375 whole entry, looked up): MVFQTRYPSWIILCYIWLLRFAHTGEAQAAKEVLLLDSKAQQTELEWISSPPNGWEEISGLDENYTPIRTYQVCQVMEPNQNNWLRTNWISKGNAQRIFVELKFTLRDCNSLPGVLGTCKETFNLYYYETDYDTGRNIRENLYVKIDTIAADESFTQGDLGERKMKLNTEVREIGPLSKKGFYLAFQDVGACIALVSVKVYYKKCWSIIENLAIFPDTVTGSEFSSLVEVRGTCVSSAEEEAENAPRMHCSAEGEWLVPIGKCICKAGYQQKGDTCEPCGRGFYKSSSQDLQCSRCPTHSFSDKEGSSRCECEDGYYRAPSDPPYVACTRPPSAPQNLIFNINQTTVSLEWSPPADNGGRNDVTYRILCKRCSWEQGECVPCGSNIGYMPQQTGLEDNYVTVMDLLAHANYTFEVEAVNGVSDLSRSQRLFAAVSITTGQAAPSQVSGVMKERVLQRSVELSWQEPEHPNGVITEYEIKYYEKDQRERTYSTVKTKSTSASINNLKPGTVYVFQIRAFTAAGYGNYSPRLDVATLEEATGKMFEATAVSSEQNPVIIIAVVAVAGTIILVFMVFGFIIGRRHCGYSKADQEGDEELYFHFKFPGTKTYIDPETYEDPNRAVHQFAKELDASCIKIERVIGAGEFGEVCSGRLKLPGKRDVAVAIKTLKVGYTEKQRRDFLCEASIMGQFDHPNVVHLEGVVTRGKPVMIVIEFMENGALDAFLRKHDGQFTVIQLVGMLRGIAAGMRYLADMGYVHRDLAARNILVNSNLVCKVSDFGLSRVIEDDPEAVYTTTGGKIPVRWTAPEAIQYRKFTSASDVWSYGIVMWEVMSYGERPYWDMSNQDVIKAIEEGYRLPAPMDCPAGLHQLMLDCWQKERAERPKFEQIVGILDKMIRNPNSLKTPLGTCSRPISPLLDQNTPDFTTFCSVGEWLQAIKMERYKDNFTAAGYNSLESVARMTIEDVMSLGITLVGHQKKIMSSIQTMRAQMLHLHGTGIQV
Chain of CDK5 CDK5R1 p25 (human) (Q00535 whole entry, looked up): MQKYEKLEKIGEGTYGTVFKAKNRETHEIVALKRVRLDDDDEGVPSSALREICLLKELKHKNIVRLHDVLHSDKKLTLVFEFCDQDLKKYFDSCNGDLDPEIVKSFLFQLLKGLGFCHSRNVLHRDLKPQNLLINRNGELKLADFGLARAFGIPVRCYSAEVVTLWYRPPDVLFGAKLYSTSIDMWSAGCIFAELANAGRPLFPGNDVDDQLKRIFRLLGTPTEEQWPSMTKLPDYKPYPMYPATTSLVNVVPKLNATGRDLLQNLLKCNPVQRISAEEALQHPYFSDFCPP
Chain of CDK5 CDK5R1 p25 (human) (Q15078 whole entry, looked up): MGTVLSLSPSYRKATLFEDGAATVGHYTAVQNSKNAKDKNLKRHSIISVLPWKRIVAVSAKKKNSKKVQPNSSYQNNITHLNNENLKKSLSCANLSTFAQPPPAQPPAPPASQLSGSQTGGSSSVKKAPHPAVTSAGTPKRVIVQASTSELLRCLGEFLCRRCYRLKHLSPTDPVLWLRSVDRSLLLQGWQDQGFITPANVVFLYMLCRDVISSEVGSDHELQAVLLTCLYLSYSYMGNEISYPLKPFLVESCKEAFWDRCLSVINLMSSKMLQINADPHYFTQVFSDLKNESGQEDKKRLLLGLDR

Nc1nc(Nc2ccc(S(N)(=O)=O)cc2)nn1C(=S)Nc1c(F)cccc1F
residual activity (STK11 (human)): 23.5%
residual activity (AKT3 (human)): 96.4%
residual activity (NEK7 (human)): 82.6%
residual activity (CSK (human)): 76.8%
residual activity (PRKD3 (human)): 7.37%
residual activity (ITK (human)): 61%
residual activity (CDK3 CCNE1 (human)): -0.912%
residual activity (TTK (human)): 60.6%
residual activity (FES (human)): 10.2%
residual activity (PASK (human)): 91.8%
residual activity (EPHB1 (human)): 19.4%
residual activity (CAMK1G (human)): 95.9%
residual activity (TXK (human)): 85.8%
residual activity (FGFR4 (human)): 32.2%
residual activity (MKNK2 (human)): 17.2%
residual activity (ALK (human)): 16.7%
residual activity (MARK2 (human)): 3.43%
residual activity (ADRBK2 (human)): 88%
residual activity (FYN (human)): 24.8%
residual activity (RPS6KA6 KD1 KD2 (human)): 2.42%
residual activity (BRSK2 (human)): 9.03%
residual activity (MAPK9 (human)): 80.9%
residual activity (NEK1 (human)): 6.11%
residual activity (SGK3 (human)): 98.4%
residual activity (CDK5 CDK5R1 p25 (human)): 0.156%
residual activity (SRC (human)): 41.6%
residual activity (EPHA7 (human)): 14.2%
residual activity (JAK2 JH1 JH2 (human)): 3.16%
residual activity (PLK3 (human)): 92.2%
residual activity (CDC42BPA (human)): 54.6%
residual activity (DDR2 (human)): 130%
residual activity (FGFR1 (human)): 6.59%
residual activity (GRK7 (human)): 96.6%
residual activity (TEC (human)): 106%
residual activity (MAPK1 (human)): 76.2%
residual activity (CAMKK2 (human)): 5.4%
residual activity (DSTYK (human)): 17.8%
residual activity (PRKCG (human)): 93%
residual activity (INSRR (human)): 86.5%
residual activity (RPS6KA3 KD1 KD2 (human)): -0.692%
residual activity (PAK1 (human)): 29%

Nc1nc(Nc2ccc(S(N)(=O)=O)cc2)nn1C(=O)c1c(F)cccc1F
residual activity (STK11 (human)): 85.8%
residual activity (AKT3 (human)): 95%
residual activity (NEK7 (human)): 99%
residual activity (CSK (human)): 88.9%
residual activity (PRKD3 (human)): 55.6%
residual activity (ITK (human)): 105%
residual activity (CDK3 CCNE1 (human)): 32.4%
residual activity (TTK (human)): 77.5%
residual activity (PASK (human)): 91.1%
residual activity (EPHB1 (human)): 84.1%
residual activity (CAMK1G (human)): 101%
residual activity (TXK (human)): 95.8%
residual activity (FGFR4 (human)): 90.3%
residual activity (MKNK2 (human)): 95.9%
residual activity (ALK (human)): 90.1%
residual activity (ADRBK2 (human)): 87.2%
residual activity (FYN (human)): 78.6%
residual activity (RPS6KA6 KD1 KD2 (human)): 24.7%
residual activity (BRSK2 (human)): 49%
residual activity (MAPK9 (human)): 93.7%
residual activity (NEK1 (human)): 76.3%
residual activity (SGK3 (human)): 114%
residual activity (CDK5 CDK5R1 p25 (human)): 2.54%
residual activity (SRC (human)): 76.3%
residual activity (EPHA7 (human)): 68.7%
residual activity (JAK2 JH1 JH2 (human)): 19.2%
residual activity (PLK3 (human)): 91.3%
residual activity (CDC42BPA (human)): 97.5%
residual activity (DDR2 (human)): 113%
residual activity (GRK7 (human)): 65.9%
residual activity (TEC (human)): 122%
residual activity (MAPK1 (human)): 98.4%
residual activity (CAMKK2 (human)): 61.5%
residual activity (DSTYK (human)): 86.2%
residual activity (PRKCG (human)): 81.3%
residual activity (INSRR (human)): 93.8%
residual activity (RPS6KA3 KD1 KD2 (human)): 38.6%
residual activity (LYN (human)): 103% and 80.5%
residual activity (PAK1 (human)): 89.5%
